Data published in patent publication US7067523B2, “Use of pyrone carboxylates for controlling pests” (Sumitomo Chemical Company, Limited, priority 2002, dated 2006).

System: Blattela germanica
Assay: Topical application to adult female Blattela germanica, mortality after 7 days
Format: in vivo
Conditions: 1 μl of 20 μg/μl acetone solution applied to ventral thorax of adult female, 10 insects per group, triplicate
Description: 1 μl of a 20 μg/μl acetone solutions of each of the present compounds No. 1 and the control compound was applied onto the surface of the ventral region of the thorax of adult female Blattela germanica. These insects were kept with a feed (solid feed for rat, Oriental Yeast, Co., Ltd.) and water for 7 days. Subsequently, the insects were examined for death to obtain mortality (10 insects per group, triplicate).
In a similar manner to the Experiment example 1, using a 20 μg/μl acetone solution of each of the present compounds Nos. 2, 3, 4, 5, 6, 7, 10, 11, 13, 14, 15, 16 and 18 instead of the present compound No. 1 and the control compound, the experiment was carried out to obtain mortality of the cockroach.
In a similar manner to the Experiment example 1, using a 2.5 μg/μl acetone solution of each of the present compounds Nos. 5 and 6 instead of the present compound No. 1 and the control compound, the experiment was carried out to obtain mortality of the cockroach.

Structure (SMILES) | mortality
CCC(=O)c1c(O)cc(C)oc1=O [control compound, 4-hydroxy-6-methyl-3-propanoyl-2-pyrone] | 30%
CCOC(=O)c1c(O)cc(C)oc1=O [Compound No. 1, ethyl 4-hydroxy-6-methyl-2-oxo-2H-pyrane-3-carboxylate] | 100%
